Data taken from patent publication US20120129875A1, “SUBSTITUTED QUINAZOLINES AS FUNGICIDES” (SYNGENTA CROP PROTECTION, LLC, priority 2009, published 2012).

Experiments:
Format in all cases: in vivo
[1] = system: Plasmopara viticola; experiment: Plasmopara viticola / grape / preventative (grape downy mildew); settings: grape seedlings cv. Gutedel, inoculated one day after application, vs untreated control, read-out: disease control
Experimental: Plasmopara viticola/Grape/Preventative (Grape Downy Mildew)
5-week old grape seedlings cv. Gutedel are treated with the formulated test compound in a spray chamber. The test plants are inoculated by spraying a sporangia suspension on their lower leaf surface one day after application. The inoculated test plants are incubated at 22° C. and 100% rh in a greenhouse and the percentage leaf area covered by disease is assessed when an appropriate level of disease appears on untreated check plants (6-8 days after application).

[2] = system: Pyrenophora teres (Helminthosporium teres); experiment: Pyrenophora teres (Helminthosporium teres) / barley / preventative (net blotch on barley); settings: barley plants cv. Regina, inoculated 2 days after application, vs untreated control, read-out: disease control
Experimental: Pyrenophora teres (Helminthosporium teres)/Barley/Preventative (Net Blotch on Barley) 1-week old barley plants cv. Regina are treated with the formulated test compound in a spray chamber. The test plants are inoculated by spraying them with a spore suspension 2 days after application. The inoculated test plants are incubated at 20° C. and 95% rh and the percentage leaf area covered by disease is assessed when an appropriate level of disease appears on untreated check plants (5-7 days after application).

[3] = system: Alternaria solani; experiment: Alternaria solani / tomato / preventative (Alternaria on tomato); settings: tomato plants cv. Roter Gnom, inoculated two days after application, vs untreated control, read-out: disease control
Experimental: (§1) Alternaria solani/Tomato/Preventative (Alternaria on Tomato) 4-week old tomato plants cv. Roter Gnom are treated with the formulated test compound in a spray chamber. The test plants are inoculated by spraying them with a spore suspension two days after application. The inoculated test plants are incubated at 22/18° C. (day/night) and 95% rh in a greenhouse and the percentage leaf area covered by disease is assessed when an appropriate level of disease appears on untreated check plants (5-7 days after application).

[4] = system: Mycosphaerella arachidis (Cercospora arachidicola); experiment: Mycosphaerella arachidis (Cercospora arachidicola) / peanut / preventative; settings: peanut plants cv. Georgia Green, inoculated one day after application, vs untreated control, read-out: disease control
Experimental: Mycosphaerella arachidis (Cercospora arachidicola)/Peanut/Preventative 3-week old peanut plants cv. Georgia Green are treated with the formulated test compound in a spray chamber. The test plants are inoculated by spraying them with a spore suspension on their lower leaf surface one day after application. After an incubation period of 4 days under a plastic hood at 23° C. and 100% rh, the test plants are kept at 23° C./20° C. (day/night) and 70% rh in a greenhouse. The percentage leaf area covered by disease is assessed when an appropriate level of disease appears on untreated check plants (12-14 days after application).

[5] = system: Phaeosphaeria nodorum (Septoria nodorum); experiment: Phaeosphaeria nodorum (Septoria nodorum) / wheat / leaf disc preventative (glume blotch); settings: Parastagonospora nodorum, foliar, wheat leaf segments cv. Kanzler on agar, inoculated 2 days after application, vs untreated control, read-out: disease control
Experimental: Phaeosphaeria nodorum (Septoria nodorum)/Wheat/Leaf Disc Preventative (Glume Blotch) Wheat leaf segments cv. Kanzler are placed on agar in a multiwell plate (24-well format) and sprayed with the formulated test compound diluted in water. The leaf disks are inoculated with a spore suspension of the fungus 2 days after application. The inoculated test leaf disks are incubated at 20° C. and 75% rh under a light regime of 12 h light/12 h darkness in a climate cabinet and the activity of a compound is assessed as percent disease control compared to untreated when an appropriate level of disease damage appears in untreated check leaf disks (5-7 days after application).

[6] = system: Botryotinia fuckeliana (Botrytis cinerea); experiment: Botryotinia fuckeliana (Botrytis cinerea) / tomato / preventative (Botrytis on tomato); settings: tomato plants cv. Roter Gnom, inoculated two days after application, vs untreated control, read-out: disease control
Experimental: as §1, with “Botryotinia fuckeliana (Botrytis cinerea)/Tomato/Preventative (Botrytis” for “Alternaria solani/Tomato/Preventative (Alternaria”, “20°” for “22/18°”, “C.” for “C. (day/night)”, “(5-6” for “(5-7”

Cc1cccc(-c2cccc(-c3ncc4ccccc4n3)n2)c1 [2/3]
pest or weed control at 200 ppm [1]: ≥ 80% | pest or weed control at 200 ppm [2]: ≥ 80% | pest or weed control at 200 ppm [3]: ≥ 80%

Cc1ccccc1-c1cccc(-c2ncc3ccccc3n2)n1 [2/4]
pest or weed control at 200 ppm [3]: ≥ 80%

Cc1cccc(-c2cccc(-c3ncc4ccccc4n3)n2)c1C [2/9]
pest or weed control at 200 ppm [1]: ≥ 80% | pest or weed control at 200 ppm [2]: ≥ 80% | pest or weed control at 200 ppm [3]: ≥ 80%

COc1ccccc1-c1cccc(-c2ncc3ccccc3n2)n1 [2/15]
pest or weed control at 200 ppm [3]: ≥ 80%

Brc1ccccc1-c1cccc(-c2ncc3ccccc3n2)n1 [2/26]
pest or weed control at 200 ppm [1]: ≥ 80% | pest or weed control at 200 ppm [4]: ≥ 80%

Fc1ccc(-c2cccc(-c3ncc4ccccc4n3)n2)c(F)c1 [2/28]
pest or weed control at 200 ppm [1]: ≥ 80% | pest or weed control at 200 ppm [2]: ≥ 80% | pest or weed control at 200 ppm [3]: ≥ 80%

CCOc1ccccc1-c1cccc(-c2ncc3ccccc3n2)n1 [2/30]
pest or weed control at 200 ppm [1]: ≥ 80% | pest or weed control at 200 ppm [3]: ≥ 80%

COc1ccc(F)cc1-c1cccc(-c2ncc3ccccc3n2)n1 [2/32]
pest or weed control at 200 ppm [2]: ≥ 80% | pest or weed control at 200 ppm [3]: ≥ 80%

COc1ccc(-c2cccc(-c3ncc4ccccc4n3)n2)c(OC)c1 [2/33]
pest or weed control at 200 ppm [3]: ≥ 80%

COc1ccc(C)cc1-c1cccc(-c2ncc3ccccc3n2)n1 [2/38]
pest or weed control at 200 ppm [3]: ≥ 80% | pest or weed control at 200 ppm [5]: ≥ 80%

COc1ccc(OC)c(-c2cccc(-c3ncc4ccccc4n3)n2)c1 [2/46]
pest or weed control at 200 ppm [1]: ≥ 80% | pest or weed control at 200 ppm [3]: ≥ 80%

COc1ccc(-c2cccc(-c3ncc4ccccc4n3)n2)c(C)c1 [2/66]
pest or weed control at 200 ppm [3]: ≥ 80% | pest or weed control at 200 ppm [5]: ≥ 80%

COc1cccc(F)c1-c1cccc(-c2ncc3ccccc3n2)n1 [2/70]
pest or weed control at 200 ppm [1]: ≥ 80% | pest or weed control at 200 ppm [3]: ≥ 80%

Cc1ccc(F)c(-c2cccc(-c3ncc4ccccc4n3)n2)c1 [2/79]
pest or weed control at 200 ppm [1]: ≥ 80%

COc1cc(F)ccc1-c1cccc(-c2ncc3ccccc3n2)n1 [2/90]
pest or weed control at 200 ppm [1]: ≥ 80% | pest or weed control at 200 ppm [2]: ≥ 80% | pest or weed control at 200 ppm [3]: ≥ 80%

Cc1ccc(-c2cccc(-c3ncc4ccccc4n3)n2)c(C)c1 [2/94]
pest or weed control at 200 ppm [1]: ≥ 80% | pest or weed control at 200 ppm [3]: ≥ 80%

Cc1ccc(-c2nc(-c3ncc4ccccc4n3)ccc2C)cc1C [3/11]
pest or weed control at 200 ppm [1]: ≥ 80% | pest or weed control at 200 ppm [3]: ≥ 80%

Cc1cc(F)ccc1-c1nc(-c2ncc3ccccc3n2)ccc1C [3/17]
pest or weed control at 200 ppm [3]: ≥ 80%

Cc1ccc(-c2ncc3ccccc3n2)nc1-c1ccccc1Br [3/36]
pest or weed control at 200 ppm [1]: ≥ 80% | pest or weed control at 200 ppm [6]: ≥ 80% | pest or weed control at 200 ppm [3]: ≥ 80%

CCc1ccccc1-c1nc(-c2ncc3ccccc3n2)ccc1C [3/37]
pest or weed control at 200 ppm [1]: ≥ 80% | pest or weed control at 200 ppm [3]: ≥ 80%

Cc1ccc(-c2ncc3ccccc3n2)nc1-c1ccccc1Cl [3/46]
pest or weed control at 200 ppm [1]: ≥ 80% | pest or weed control at 200 ppm [4]: ≥ 80% | pest or weed control at 200 ppm [3]: ≥ 80%

COc1ccc(F)c(-c2nc(-c3ncc4ccccc4n3)ccc2C)c1 [3/56]
pest or weed control at 200 ppm [1]: ≥ 80% | pest or weed control at 200 ppm [4]: ≥ 80% | pest or weed control at 200 ppm [3]: ≥ 80%

Cc1ccc(-c2nc(-c3ncc4ccccc4n3)ccc2C)cc1 [3/69]
pest or weed control at 200 ppm [1]: ≥ 80% | pest or weed control at 200 ppm [2]: ≥ 80% | pest or weed control at 200 ppm [6]: ≥ 80%

COc1ccc(-c2nc(-c3ncc4ccccc4n3)ccc2C)cc1 [3/70]
pest or weed control at 200 ppm [2]: ≥ 80% | pest or weed control at 200 ppm [3]: ≥ 80%

Cc1ccc(-c2ncc3ccccc3n2)nc1-c1cc(Cl)cc(Cl)c1 [3/73]
pest or weed control at 200 ppm [1]: ≥ 80% | pest or weed control at 200 ppm [2]: ≥ 80%

COc1cccc(-c2nc(-c3ncc4ccccc4n3)ccc2C)c1 [3/84]
pest or weed control at 200 ppm [1]: ≥ 80% | pest or weed control at 200 ppm [2]: ≥ 80% | pest or weed control at 200 ppm [3]: ≥ 80%

Cc1cc(C)cc(-c2nc(-c3ncc4ccccc4n3)ccc2C)c1 [3/86]
pest or weed control at 200 ppm [1]: ≥ 80% | pest or weed control at 200 ppm [2]: ≥ 80% | pest or weed control at 200 ppm [3]: ≥ 80%

COc1ccc(Cl)cc1-c1nc(-c2ncc3ccccc3n2)ccc1C [3/95]
pest or weed control at 200 ppm [1]: ≥ 80% | pest or weed control at 200 ppm [2]: ≥ 80% | pest or weed control at 200 ppm [3]: ≥ 80%

c1cc(Oc2ccc3ccccc3c2)nc(-c2ncc3ccccc3n2)c1 [4/10]
pest or weed control at 200 ppm [1]: ≥ 80% | pest or weed control at 200 ppm [3]: ≥ 80%

COc1ccccc1Oc1cccc(-c2ncc3ccccc3n2)n1 [4/15]
pest or weed control at 200 ppm [2]: ≥ 80%

Cc1ccccc1Oc1cccc(-c2ncc3ccccc3n2)n1 [4/22, 2-(6-o-tolyloxypyridin-2-yl)-quinazoline]
pest or weed control at 200 ppm [1]: ≥ 80% | pest or weed control at 200 ppm [2]: ≥ 80% | pest or weed control at 200 ppm [3]: ≥ 80%

Clc1ccccc1Oc1cccc(-c2ncc3ccccc3n2)n1 [4/23]
pest or weed control at 200 ppm [2]: ≥ 80%

CSc1ccc(Oc2nc(-c3ncc4ccccc4n3)ccc2C)cc1 [5/4]
pest or weed control at 200 ppm [1]: ≥ 80% | pest or weed control at 200 ppm [3]: ≥ 80%

Cc1ccc(-c2ncc3ccccc3n2)nc1Oc1cccc2ccccc12 [5/13]
pest or weed control at 200 ppm [2]: ≥ 80% | pest or weed control at 200 ppm [3]: ≥ 80%

Cc1ccc(Oc2nc(-c3ncc4ccccc4n3)ccc2C)cc1 [5/17]
pest or weed control at 200 ppm [1]: ≥ 80% | pest or weed control at 200 ppm [4]: ≥ 80%

Cc1ccc(-c2ncc3ccccc3n2)nc1Cc1ccc(Cl)cc1 [7/18]
pest or weed control at 200 ppm [2]: ≥ 80% | pest or weed control at 200 ppm [3]: ≥ 80%

Cc1ccc(-c2ncc3ccccc3n2)nc1Cc1ccccc1Cl [7/19]
pest or weed control at 200 ppm [1]: ≥ 80% | pest or weed control at 200 ppm [6]: ≥ 80%

COc1cccc(Sc2cccc(-c3ncc4ccccc4n3)n2)c1 [9/2]
pest or weed control at 200 ppm [1]: ≥ 80% | pest or weed control at 200 ppm [2]: ≥ 80% | pest or weed control at 200 ppm [3]: ≥ 80%

Fc1ccc(Sc2cccc(-c3ncc4ccccc4n3)n2)cc1 [9/4]
pest or weed control at 200 ppm [2]: ≥ 80% | pest or weed control at 200 ppm [3]: ≥ 80%

Cc1ccc(-c2ncc3ccccc3n2)nc1Sc1ccccc1 [9/6]
pest or weed control at 200 ppm [2]: ≥ 80% | pest or weed control at 200 ppm [3]: ≥ 80%

Cc1ccc(-c2ncc3ccccc3n2)nc1Sc1ccccc1Cl [9/7]
pest or weed control at 200 ppm [2]: ≥ 80% | pest or weed control at 200 ppm [3]: ≥ 80%

Clc1ccccc1Sc1cccc(-c2ncc3ccccc3n2)n1 [9/8]
pest or weed control at 200 ppm [2]: ≥ 80% | pest or weed control at 200 ppm [3]: ≥ 80%

Cc1ccc(-c2ncc3ccccc3n2)nc1C [10/3]
pest or weed control at 200 ppm [1]: ≥ 80%

Cc1ccc(-c2ncc3cc(N)ccc3n2)nc1-c1ccccc1 [11/2]
pest or weed control at 200 ppm [1]: ≥ 80%

Cc1ccc2nc(-c3ccc(C)c(-c4ccccc4)n3)ncc2c1 [11/4]
pest or weed control at 200 ppm [2]: ≥ 80% | pest or weed control at 200 ppm [3]: ≥ 80%

Cc1ccc(-c2ncc3cc(Cl)ccc3n2)nc1-c1ccccc1 [11/5]
pest or weed control at 200 ppm [1]: ≥ 80% | pest or weed control at 200 ppm [2]: ≥ 80%

CC(C)Oc1nc(-c2cccc(Cc3ccccc3)n2)nc2ccccc12 [12/9]
pest or weed control at 200 ppm [5]: ≥ 80%

COCCOc1nc(-c2cccc(Cc3ccccc3)n2)nc2ccccc12 [12/10]
pest or weed control at 200 ppm [5]: ≥ 80%

CCCc1nc(-c2cccc(C(Cc3ccccc3)c3ccccc3)n2)nc2ccccc12 (stereo not drawn) [12/13]
pest or weed control at 200 ppm [5]: ≥ 80%

CCc1nc(-c2cccc(Cc3ccccc3)n2)nc2ccccc12 [12/15]
pest or weed control at 200 ppm [5]: ≥ 80%

OCc1nc(-c2cccc(Cc3ccccc3)n2)nc2ccccc12 [12/16]
pest or weed control at 200 ppm [5]: ≥ 80%

COc1ccc(-c2ncc3ccccc3n2)nc1-c1ccc(C)cc1 [14/2]
pest or weed control at 200 ppm [5]: ≥ 80%

COc1ccc(-c2nc(-c3ncc4ccccc4n3)ccc2OC)cc1 [14/3]
pest or weed control at 200 ppm [5]: ≥ 80%

COc1ccc(-c2ncc3ccccc3n2)nc1-c1ccccc1 [14/4]
pest or weed control at 200 ppm [5]: ≥ 80%

COc1ccc(-c2ncc3ccccc3n2)nc1-c1ccc(F)cc1 [14/5]
pest or weed control at 200 ppm [5]: ≥ 80%
